Consider eight compounds from ChEMBL document CHEMBL1201862, “PubChem BioAssay data set” (2004).

Assay in all cases: DTP human tumour cell line panel, 48 h
For experiment [1], the system named is NCI-H226.
For experiment [2], the system named is T47D.
Experiment [3] relates to NCI/ADR-RES.
Experiment [4] deals with MDA-MB-231.
For experiment [5], the system named is SW-620.
Experiment [6] deals with OVCAR-8.
Experiment [7] concerns RPMI-8226.
For experiment [8], the system named is HOP-62.
Experiment [9] concerns SK-MEL-28.
For experiment [10], the system named is UACC-257.
Experiment [11] relates to NCI-H23.
Experiment [12] has as its system A549.
Experiment [13] has as its system NCI-H522.
Experiment [14] concerns A498.
For experiment [15], the system named is MOLT-4.
For experiment [16], the system named is LOX IMVI.
Experiment [17] relates to MDA-MB-435.
For experiment [18], the system named is UACC-62.
Experiment [19] deals with OVCAR-4.
Experiment [20] deals with SNB-75.

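Assay format: 96-well plates, 48-hour exposure. GI50 = concentration required for 50% inhibition of growth.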 Calls of active or inactive are those of the source. No stated cut-off is given here; in the data, active = GI50 up to about 1.1 µM and inactive = higher. Some results are limits rather than exact numbers.

Usually GI50 stands for the concentration at which growth is held to half of that of the control.

`COc1ccc2c(c1)CC[C@@H]1C2CC[C@]2(C)OC(=O)CCC12` (some centres not stated): the GI50 is 11.7 µM (inactive) in [1]; 34.6 µM (inactive) in [2]; 14.9 µM (inactive) in [3]; 2.45 µM (inactive) in experiment [4]; 10.7 µM (inactive) in [5]; 14 µM (inactive) in experiment [6]. Moreover, the GI50 is 5.77 µM (inactive) in experiment [7]; 25 µM (inactive) in [8]; 16.8 µM (inactive) in [9]; 12.8 µM (inactive) in experiment [10]; 12.6 µM (inactive) in experiment [11]; 27.9 µM (inactive) in experiment [12]. Moreover, the GI50 in experiment [13] was 6.07 µM (inactive); in experiment [14], 38.6 µM (inactive); in [15], > 100 µM (inactive); in experiment [16] it was 6.67 µM (inactive); in experiment [17], 26.5 µM (inactive); in [18], 20.2 µM (inactive). Besides, the GI50 in experiment [19] was 6.12 µM (inactive).

`CCc1c(C)c(C#N)c(=S)n(C2OC(CO)C(O)C(O)C2O)c1C` (configuration not stated): the GI50 in experiment [1] is > 100 µM (inactive); in [2], > 100 µM (inactive); in experiment [3] it was > 100 µM (inactive); in [4], > 100 µM (inactive); in experiment [20], 65.2 µM (inactive); in [5], > 100 µM (inactive). Besides, the GI50 in experiment [6], in experiment [8], in [9], in experiment [10], in experiment [11] and in [12] was > 100 µM (inactive) each time. The GI50 in [13], in experiment [14], in [15], in [16], in experiment [17] and in [18] was > 100 µM (inactive) each time. Moreover, in experiment [19], the GI50 was > 100 µM (inactive).

As for `COc1cc(/C=N\N(C)C)cc(/C=N/N(C)C)c1O`, the GI50 in experiment [1] is 15.8 µM (inactive); in experiment [2] it was 1.98 µM (inactive); in experiment [3], 25.4 µM (inactive); in experiment [4], 25.8 µM (inactive); in experiment [5] it was 46.7 µM (inactive); in experiment [7], 19.6 µM (inactive). In addition, the GI50 in experiment [8] was 39.3 µM (inactive); in experiment [9], 19.3 µM (inactive); in experiment [10] it was 28.6 µM (inactive); in experiment [11] it was > 100 µM (inactive); in [12], > 100 µM (inactive); in [13], 65.9 µM (inactive). Besides, the GI50 is 45.6 µM (inactive) in experiment [14]; < 0.01 µM (active) in [15]; 25.1 µM (inactive) in experiment [16]; 25.9 µM (inactive) in experiment [17]; 28.1 µM (inactive) in experiment [18]; 49.2 µM (inactive) in [19].

For `COC(=O)/C=C/[C@@H]1[C@H](C)N1S(=O)(=O)c1ccc(C)cc1` (some centres not stated), the GI50 is > 100 µM (inactive) in experiment [1]; > 100 µM (inactive) in [2]; > 100 µM (inactive) in experiment [3]; 78.7 µM (inactive) in experiment [4]; > 100 µM (inactive) in [5]; > 100 µM (inactive) in experiment [6]. For the same compound, the GI50 in [7], in [8], in [9], in experiment [10], in experiment [11] and in experiment [12] was > 100 µM (inactive) each time. Further, the GI50 in experiment [13] is > 100 µM (inactive); in experiment [14] it was > 100 µM (inactive); in experiment [15] it was > 100 µM (inactive); in [16], 56.4 µM (inactive); in experiment [17], > 100 µM (inactive); in experiment [18], > 100 µM (inactive). Moreover, the GI50 in experiment [19] was > 100 µM (inactive).

On to `CCOC(=O)C1C(=O)CC(C)(O)C(C(=O)OCC)C1c1ccc(O)c(OC)c1` (configuration not stated), for which the GI50 in [1], in [2], in experiment [3], in experiment [4], in experiment [20] and in [5] was > 100 µM (inactive) each time. For the same compound, the GI50 in experiment [6], in experiment [8], in experiment [9], in experiment [10], in experiment [11] and in [12] was > 100 µM (inactive) in each case. Moreover, the GI50 in experiment [13], in experiment [14], in experiment [15], in experiment [16], in experiment [17] and in [18] was > 100 µM (inactive) each time. The GI50 in [19] was > 100 µM (inactive).

For the compound `Cc1cc2c(cc1C)C(=O)/C(=N/Nc1ccc(F)cc1)CCO2`, the GI50 in experiment [1] was > 100 µM (inactive); in experiment [2], 5.04 µM (inactive); in [3], > 100 µM (inactive); in experiment [4], > 100 µM (inactive); in experiment [5], > 100 µM (inactive); in [6], > 100 µM (inactive). Moreover, the GI50 in experiment [7], in experiment [8], in [9], in experiment [10], in experiment [11] and in experiment [12] was > 100 µM (inactive) throughout. Further, the GI50 was > 100 µM (inactive) in [13]; > 100 µM (inactive) in experiment [14]; > 100 µM (inactive) in experiment [15]; 65.8 µM (inactive) in experiment [16]; > 100 µM (inactive) in [17]; > 100 µM (inactive) in experiment [18]. In experiment [19], the GI50 was > 100 µM (inactive).

As for `CC1(C)[C@@H](Cn2ccc(=O)[nH]c2=O)CC[C@@]1(C)CO`, the GI50 in [1], in experiment [2], in [3], in experiment [4], in [20] and in [5] was > 100 µM (inactive) in each case. The GI50 in experiment [8], in [9], in [10], in [12], in experiment [14] and in experiment [16] was > 100 µM (inactive) in each case. Further, the GI50 in [17], in [18] and in experiment [19] was > 100 µM (inactive) throughout.

Take `COC(=O)C1=C(C)NC(C)=C(C(=O)OC)C1c1cccc(N=O)c1`: the GI50 in [1] was 16.3 µM (inactive); in [2] it was 11.6 µM (inactive); in [3] it was 22.5 µM (inactive); in experiment [4], 14.4 µM (inactive); in experiment [5] it was 4.78 µM (inactive); in experiment [6] it was 15 µM (inactive). The GI50 in experiment [7] was 4.53 µM (inactive); in experiment [8], 21.1 µM (inactive); in experiment [9] it was 16.7 µM (inactive); in experiment [10], 16.6 µM (inactive); in experiment [11], 19.5 µM (inactive); in [12], 31.8 µM (inactive). In addition, the GI50 is 3.18 µM (inactive) in experiment [13]; 35 µM (inactive) in experiment [14]; 4.76 µM (inactive) in [15]; 17.4 µM (inactive) in experiment [16]; 16.1 µM (inactive) in experiment [17]; 14.3 µM (inactive) in experiment [18]. The GI50 in [19] was 13.1 µM (inactive).
